The source made the active and inactive calls. The rule behind the calls is not given here.
Tests used:
[1] = Cytotoxicity against human MRC5 cells assessed as inhibition of cell viability incubated for 72 hrs by MTT assay; assay type: toxicity, cell-based
HepG2 [2] = assay: Induction of apoptosis in human HepG2 cells at 5 uM incubated for 72 hrs by Annexin V-FITC/PI staining based flow cytometry; assay type: functional, cell-based
HepG2 [3] = assay: Anticancer activity against human HepG2 cells assessed as inhibition of cell viability incubated for 72 hrs by MTT assay; assay type: functional, cell-based; settings: HepG2, 72 h
[4] = Selectivity index, ratio of IC50 for cytotoxicity against human MRC5 cells to IC50 for anticancer activity against human HepG2 cells; assay type: toxicity, cell-based; settings: MRC5 cells versus HepG2 cells, read-out: Ratio IC50
HepG2 [5] = assay: Potency index, ratio of Sorafenib IC50 to test compound IC50 for anticancer activity against human HepG2 cells assessed as inhibition of cell viability incubated for 72 hrs by MTT assay; assay type: functional

SMILES	IC50 at 72 h [1] [nM]	Activity (HepG2 [2])	IC50 (HepG2 [3]) [nM]	selectivity ratio [4]	Ratio IC50 (HepG2 [5])
CNC(=O)c1cc(Oc2ccc(NC(=O)Nc3ccc(Cl)c(C(F)(F)F)c3)cc2)ccn1 [SORAFENIB]	11100	Active	–	–	–
CCc1ccccc1-n1cc(COc2cccc(NC(=O)Nc3ccc(Cl)c(C(F)(F)F)c3)c2)nn1	–	–	3530	–	–
O=C(Nc1cccc(OCc2cn(-c3ccc(Br)cc3)nn2)c1)Nc1ccc(Cl)c(C(F)(F)F)c1	11000	–	2730	4.03	–
N#Cc1cccc(-n2cc(COc3cccc(NC(=O)Nc4ccc(Cl)c(C(F)(F)F)c4)c3)nn2)c1	2960	–	2760	1.07	–
O=C(Nc1cccc(OCc2cn(-c3ccc(C(F)(F)F)cc3)nn2)c1)Nc1ccc(Cl)c(C(F)(F)F)c1	–	–	1800	–	–
N#Cc1ccccc1-n1cc(COc2cccc(NC(=O)Nc3ccc(Cl)c(C(F)(F)F)c3)c2)nn1	17500	–	1970	8.89	–
O=C(Nc1cccc(OCc2cn(-c3ccccc3Br)nn2)c1)Nc1ccc(Cl)c(C(F)(F)F)c1	–	–	2810	–	–
Cc1cccc(-n2cc(COc3cccc(NC(=O)Nc4ccc(Cl)c(C(F)(F)F)c4)c3)nn2)c1	–	–	7270	–	–
O=C(Nc1cccc(OCc2cn(-c3ccccc3I)nn2)c1)Nc1ccc(Cl)c(C(F)(F)F)c1	21900	–	2870	7.61	–
CCc1cccc(-n2cc(COc3cccc(NC(=O)Nc4ccc(Cl)c(C(F)(F)F)c4)c3)nn2)c1	–	–	37900	–	–
O=C(Nc1cccc(OCc2cn(-c3ccc(Cl)cc3)nn2)c1)Nc1ccc(Cl)c(C(F)(F)F)c1	–	–	2490	–	–
CC(C)c1ccccc1-n1cc(COc2cccc(NC(=O)Nc3ccc(Cl)c(C(F)(F)F)c3)c2)nn1	–	–	1900	–	–
O=C(Nc1cccc(OCc2cn(-c3ccccc3F)nn2)c1)Nc1ccc(Cl)c(C(F)(F)F)c1	–	–	1520	–	–
O=C(Nc1cccc(OCc2cn(-c3cccc(C(F)(F)F)c3)nn2)c1)Nc1ccc(Cl)c(C(F)(F)F)c1	–	–	1270	–	–
O=C(Nc1cccc(OCc2cn(-c3cccc(Br)c3)nn2)c1)Nc1ccc(Cl)c(C(F)(F)F)c1	11900	Active	1040	11.5	5
Cc1ccccc1-n1cc(COc2cccc(NC(=O)Nc3ccc(Cl)c(C(F)(F)F)c3)c2)nn1	–	–	3440	–	–

SMILES	IC50 at 72 h [1] [nM]	Activity (HepG2 [2])	IC50 (HepG2 [3]) [nM]	selectivity ratio [4]	Ratio IC50 (HepG2 [5])
O=C(Nc1cccc(OCc2cn(-c3ccccc3)nn2)c1)Nc1ccc(Cl)c(C(F)(F)F)c1	18400	–	1780	10.3	2.8
N#Cc1ccc(-n2cc(COc3cccc(NC(=O)Nc4ccc(Cl)c(C(F)(F)F)c4)c3)nn2)cc1	–	–	2980	–	–
O=C(Nc1cccc(OCc2cn(-c3ccccc3Cl)nn2)c1)Nc1ccc(Cl)c(C(F)(F)F)c1	–	–	1960	–	–
O=C(Nc1cccc(OCc2cn(-c3ccc(F)cc3)nn2)c1)Nc1ccc(Cl)c(C(F)(F)F)c1	4740	–	1350	3.52	–
O=C(Nc1cccc(OCc2cn(-c3cccc(F)c3)nn2)c1)Nc1ccc(Cl)c(C(F)(F)F)c1	–	–	2120	–	–
Cc1ccc(-n2cc(COc3cccc(NC(=O)Nc4ccc(Cl)c(C(F)(F)F)c4)c3)nn2)cc1	–	–	5430	–	–
CC(C)c1cccc(-n2cc(COc3cccc(NC(=O)Nc4ccc(Cl)c(C(F)(F)F)c4)c3)nn2)c1	21400	–	3250	6.58	–
O=C(Nc1cccc(OCc2cn(-c3ccc(I)cc3)nn2)c1)Nc1ccc(Cl)c(C(F)(F)F)c1	6840	–	2690	2.55	–
CCc1ccc(-n2cc(COc3cccc(NC(=O)Nc4ccc(Cl)c(C(F)(F)F)c4)c3)nn2)cc1	–	–	1950	–	–
O=C(Nc1cccc(OCc2cn(-c3cccc(I)c3)nn2)c1)Nc1ccc(Cl)c(C(F)(F)F)c1	–	–	4780	–	–
COc1ccccc1-n1cc(COc2cccc(NC(=O)Nc3ccc(Cl)c(C(F)(F)F)c3)c2)nn1	–	–	11300	–	–
COc1ccc(-n2cc(COc3cccc(NC(=O)Nc4ccc(Cl)c(C(F)(F)F)c4)c3)nn2)cc1	–	–	4680	–	–
O=C(Nc1cccc(OCc2cn(-c3cccc(Cl)c3)nn2)c1)Nc1ccc(Cl)c(C(F)(F)F)c1	–	–	2020	–	–
COc1cccc(-n2cc(COc3cccc(NC(=O)Nc4ccc(Cl)c(C(F)(F)F)c4)c3)nn2)c1	8570	–	1310	6.55	–
O=C(Nc1cccc(OCc2cn(-c3ccccc3C(F)(F)F)nn2)c1)Nc1ccc(Cl)c(C(F)(F)F)c1	8230	–	2320	3.55	–
CC(C)c1ccc(-n2cc(COc3cccc(NC(=O)Nc4ccc(Cl)c(C(F)(F)F)c4)c3)nn2)cc1	–	–	2470	–	–
